Results published in article PMC8206213, “An L-2-hydroxyglutarate biosensor based on specific transcriptional regulator LhgR” (Nature Communications, 2021).
Where “and” joins values, the source holds several entries; their conditions need not be identical. Equal entries are not always repeated.

How the values were obtained:
[1] = test system: LhgO; assay: Enzymatic assay of LhgO in crude extracts of P. putida KT2440 derivatives grown on different carbon sources (induction of lhgO under LhgR control); format: cell-based, Pseudomonas putida
Procedure: The cells were harvested at mid-log phase, washed twice and resuspended in phosphate-buffered saline (PBS), then lysed by sonication on ice after the addition of 1 mM phenylmethylsulfonyl fluoride (PMSF). […] Protein concentrations of the supernatants were determined using the Bradford protein assay kit (Sangon, China). […] The 800 μL reaction solution contained 0.1 mM […], 0.05 mM DCPIP, 0.2 mM phenazine methosulfate (PMS) in PBS and 40 μL crude extracts.

[2] = Dose-response of purified LHGFR for D-2-HG in buffer; format: binding
Procedure: Purified L-2-HG biosensors and different compounds were diluted by 50 mM Tris-HCl buffer (pH 7.4), mixed together in a black 96-well plate at a volume ratio of 3:1, and the fluorescence intensities were measured using an EnSight microplate reader (PerkinElmer, USA) with excitation at 430 nm, emission at 485 nm (mTFP) and 528 nm (Venus). The dose-response curves were fitted by OriginPro 2016 software (OriginLab) according to the following formula:1 R=Rmax+Rmin−Rmax/1+([L-2-HG]/Kd)^p where R, Rmin, and Rmax refer to the emission ratio of Venus to mTFP, ratio in the absence of L-2-HG, and ratio at saturation with L-2-HG, respectively. The [L-2-HG], Kd, and p refer to the L-2-HG concentration, apparent dissociation constant, and Hill slope, respectively. Emission spectra were recorded at 430 nm excitation, in steps of 2 nm. Excitation spectra were recorded using emission at 550 nm, excitation from 380 to 535 nm in steps of 2 nm.

[3] = test system: LHGFR0N7C; assay: Specificity of purified LHGFR0N7C, emission ratio with 240 μM compounds; format: binding, Pseudomonas putida W619; details: 240 μM compound
[4] = test system: LHGFR0N3C; assay: Influence of other compounds on the response of purified LHGFR0N3C to L-2-HG; format: binding, Pseudomonas putida W619
How it was run: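 Purified L-2-HG biosensors were mixed 3:1 with test compounds in 50 mM Tris-HCl pH 7.4, excited at 430 nm, and the 528 nm (Venus)/485 nm (mTFP) emission was read. Responses were fitted with a Hill model giving apparent Kd and Hill slope.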

[5] = test system: LHGFR3N7C expressed in E. coli BL21(DE3); assay: Control biosensor LHGFR3N7C expressed in E. coli, response to added compounds; format: cell-based; details: Supplementary Fig. 14a
Procedure: To characterize the sensitivity and specificity of LHGFR expressed in E. coli BL21(DE3), 90 μL cell suspensions following 8 h carbon starvation were mixed with 10 μL increasing concentrations of L-2-HG or other compounds, and then added into a black 96-well plate (total 100 μL/per well), the fluorescence intensities were determined using an EnSight microplate reader (PerkinElmer, USA) and the following instrument settings: excitation at 430 nm, emission at 485 nm (mTFP) and 528 nm (Venus), time intervals of 5 min, the temperature at 37 °C, and shake at 180 rpm.

Compound: O=C(O)CC[C@@H](O)C(=O)O [D-2-HG]
- LhgO activity ([1]; crude extract of DcsiRDlhgO-pME6032 grown in MSM with the compound as sole carbon source): 7.06E-04 and 6.93E-04 and 7.09E-04
- Induction of lhgO expression / effector molecule of LhgR ([1]; gene segment F2-lhgR-F1-lhgO in P. putida KT2440 derivatives): neither D-2-HG nor glutarate can serve as the effector molecule of LhgR
- Emission ratio of 528/485 ([2]; 2-HG concentration 0.01, Suppl. Fig. 9c): 1.387 and 1.378 and 1.399
- Emission ratio of 528/485 ([2]; 2-HG concentration 0.01, Suppl. Fig. 9d): 1.657 and 1.673 and 1.678
- Emission ratio of 528/485 ([2]; 2-HG concentration 0.1, Suppl. Fig. 9c): 1.372 and 1.375 and 1.382
- Emission ratio of 528/485 ([2]; 2-HG concentration 0.1, Suppl. Fig. 9d): 1.659 and 1.671 and 1.687
- Emission ratio of 528/485 ([2]; 2-HG concentration 0.2, Suppl. Fig. 9c): 1.374 and 1.387 and 1.391
- Emission ratio of 528/485 ([2]; 2-HG concentration 0.2, Suppl. Fig. 9d): 1.6456 and 1.673 and 1.682
- Emission ratio of 528/485 ([2]; 2-HG concentration 1, Suppl. Fig. 9c): 1.374 and 1.373 and 1.392
- Emission ratio of 528/485 ([2]; 2-HG concentration 1, Suppl. Fig. 9d): 1.662 and 1.681 and 1.683
- Emission ratio of 528/485 ([2]; 2-HG concentration 2, Suppl. Fig. 9c): 1.367 and 1.388 and 1.39
- Emission ratio of 528/485 ([2]; 2-HG concentration 2, Suppl. Fig. 9d): 1.647 and 1.673 and 1.676
- Emission ratio of 528/485 ([2]; 2-HG concentration 10, Suppl. Fig. 9c): 1.374 and 1.398 and 1.395
- Emission ratio of 528/485 ([2]; 2-HG concentration 10, Suppl. Fig. 9d): 1.662 and 1.69 and 1.707
- Emission ratio of 528/485 ([2]; 2-HG concentration 20, Suppl. Fig. 9c): 1.362 and 1.378 and 1.389
- Emission ratio of 528/485 ([2]; 2-HG concentration 20, Suppl. Fig. 9d): 1.665 and 1.705 and 1.723
- Emission ratio of 528/485 ([2]; 2-HG concentration 100, Suppl. Fig. 9c): 1.381 and 1.406 and 1.415
- Emission ratio of 528/485 ([2]; 2-HG concentration 100, Suppl. Fig. 9d): 1.815 and 1.829 and 1.846
- Emission ratio of 528/485 ([2]; 2-HG concentration 200, Suppl. Fig. 9c): 1.404 and 1.432 and 1.433
- Emission ratio of 528/485 ([2]; 2-HG concentration 200, Suppl. Fig. 9d): 1.932 and 1.978 and 1.981
- Emission ratio of 528/485 ([2]; 2-HG concentration 1000, Suppl. Fig. 9c): 1.525 and 1.561 and 1.565
- Emission ratio of 528/485 ([2]; 2-HG concentration 1000, Suppl. Fig. 9d): 2.255 and 2.2953 and 2.327
- Emission ratio of 528/485 ([2]; 2-HG concentration 2000, Suppl. Fig. 9c): 1.698 and 1.693 and 1.687
- Emission ratio of 528/485 ([2]; 2-HG concentration 2000, Suppl. Fig. 9d): 2.559 and 2.546 and 2.55
- Emission ratio [3]: 1.984 and 1.994 and 1.98
- Influence on the response of LHGFR0N3C to L-2-HG ([4]; 240 μM D-2-HG, 1 mM 2-KG or 1 mM ATP for dose-response curves): could barely affect the response of LHGFR0N3C to L-2-HG
- Emission ratio ([4]; Suppl. Fig. 9a, L-2-HG alone or with the compound, three replicates): 2.0547 and 2.056 and 2.045
- normalized emission ratio of control biosensor expressed in E. coli ([5]; time 0 min): 1.02 and 1.012 and 1.01 and 1.0239
- normalized emission ratio of control biosensor expressed in E. coli ([5]; time 5 min): 1.007 and 1.013 and 1.012 and 1.022
- normalized emission ratio of control biosensor expressed in E. coli ([5]; time 10 min): 1.011 and 1.012 (2×) and 1.02
- normalized emission ratio of control biosensor expressed in E. coli ([5]; time 15 min): 1.008 and 1.007 and 1.013 and 1.022
- normalized emission ratio of control biosensor expressed in E. coli ([5]; time 20 min): 1.004 and 1.013 and 1.022 and 1.028
- normalized emission ratio of control biosensor expressed in E. coli ([5]; time 25 min): 1.0101 and 1.011 and 1.02 and 1.024
- normalized emission ratio of control biosensor expressed in E. coli ([5]; time 30 min): 1.007 and 1.022 and 1.016 and 1.027
- normalized emission ratio of control biosensor expressed in E. coli ([5]; time 35 min): 1.021 and 1.0176 and 1.025 and 1.027
- normalized emission ratio of control biosensor expressed in E. coli ([5]; time 40 min): 1.019 (2×) and 1.013 and 1.028
- normalized emission ratio of control biosensor expressed in E. coli ([5]; time 45 min): 1.015 and 1.017 and 1.0244 and 1.023
- normalized emission ratio of control biosensor expressed in E. coli ([5]; time 50 min): 1.007 and 1.012 and 1.0275 and 1.019
- normalized emission ratio of control biosensor expressed in E. coli ([5]; time 55 min): 1.011 (2×) and 1.037 and 1.027
- normalized emission ratio of control biosensor expressed in E. coli ([5]; time 60 min): 1.016 and 1.014 and 1.0182 and 1.0226
- normalized emission ratio of control biosensor expressed in E. coli ([5]; time 65 min): 1.014 and 1.022 and 1.029 and 1.023
- normalized emission ratio of control biosensor expressed in E. coli ([5]; time 70 min): 1.021 and 1.015 and 1.038 and 1.03
- normalized emission ratio of control biosensor expressed in E. coli ([5]; time 75 min): 1.0229 and 1.021 and 1.034 and 1.027
- normalized emission ratio of control biosensor expressed in E. coli ([5]; time 80 min): 1.027 and 1.023 and 1.038 (2×)
- normalized emission ratio of control biosensor expressed in E. coli ([5]; time 85 min): 1.021 and 1.027 and 1.032 and 1.0274
- normalized emission ratio of control biosensor expressed in E. coli ([5]; time 90 min): 1.0277 and 1.033 and 1.04 and 1.032
